Data as given in patent US5286648A, “A84575 antibiotics” (Eli Lilly and Company, priority 1991, dated 1994).
In brackets after ≈: the same amount, converted by molar mass.

Tests used:
[1] = system: Streptococcus sp. (Group D); assay: In vitro activity vs. Streptococcus sp. (Group D) strains, agar dilution, Mueller-Hinton agar (Table 8); type: cell-based
[2] = system: Bacteroides thetaiotaomicron; assay: Susceptibility of anaerobic bacterial isolates, agar dilution (Table 13); type: cell-based; settings: strain 1438, 24 hr, A84575: 3 different lots
Source text: (§1) *MIC Determined by the AgarDilution Method, Endpoints Read After 24Hr.

Clostridium septicum = assay: as above; type: cell-based; settings: strain 1128, 24 hr, A84575: 3 different lots
Source text: as §1

Peptococcus prevoti [3] = assay: as above; type: cell-based; settings: strain 1281; 24 hr; A84575: 3 different lots
Source text: as §1

Eubacterium aerofaciens = assay: as above; type: cell-based; settings: Collinsella aerofaciens, 24 h
[4] = system: Peptococcum asaccharolyticus; assay: as above; type: cell-based; settings: 24 h
[5] = system: Peptostreptococcus intermedius; assay: as above; type: cell-based; settings: 24 h
Bacteroides fragilis = assay: as above; type: cell-based
[6] = system: Bacteroides malaninogenicus; assay: as above; type: cell-based; settings: 24 h
Bacteroides vulgatis = assay: as above; type: cell-based; settings: 24 h
Bacteroides corrodens = assay: as above; type: cell-based; settings: Eikenella corrodens, 24 h
[7] = system: Fusobacterium necrophorum; assay: as above; type: cell-based; settings: 24 h
Propionibacterium acnes = assay: Susceptibility of Propionibacterium acnes isolates, agar dilution (Table 15); type: cell-based; settings: Cutibacterium acnes, 24 h
Peptococcus constellatus = assay: Susceptibility of anaerobic cocci isolates, agar dilution (Table 16); type: cell-based; settings: Streptococcus constellatus, 24 h
Peptococcus magnus = assay: as above; type: cell-based; settings: Finegoldia magna, 24 h
Peptococcus prevoti [8] = assay: as above; type: cell-based; settings: 24 hr, A84575: 3 different lots
Source text: as §1

[9] = system: Peptostreptococcus anaerobius; assay: as above; type: cell-based; settings: 24 h
[10] = system: Peptostreptococcus intermedius; assay: as above; type: cell-based; settings: 24 h
Streptococcus aureus = assay: In vivo activity, administered subcutaneously to mice (Table 17); settings: sc
Streptococcus pneumoniae = assay: as above; settings: sc, subcutaneous, LD challenge 587
[11] = Plasma levels in mice (Table 18); type: in vivo, mice (ICR Barrier); design: unit not given here; settings: subcutaneous, 20 mg/kg, n = 5
Streptococcus pyogenes = assay: In vitro activity vs. Streptococcus pyogenes strains, agar dilution, Mueller-Hinton agar (Table 11)
S. salivarius = assay: In vitro activity vs. miscellaneous Streptococcus strains, agar dilution, Mueller-Hinton agar (Table 9)
S. sanguis = assay: as above
S. mutans = assay: as above

Question: What does the source list for `CN[C@H](CC(C)C)C(=O)N[C@H]1C(=O)N[C@@H](CC(N)=O)C(=O)N[C@H]2C(=O)N[C@H]3C(=O)N[C@H](C(=O)N[C@H](C(=O)O)c4cc(O)cc(O)c4-c4cc3ccc4O)[C@H](O)c3ccc(c(Cl)c3)Oc3cc2cc(c3O[C@@H]2O[C@H](CO)[C@@H](O)[C@H](O)[C@H]2O[C@H]2C[C@](C)(N)[C@H](O)[C@H](C)O2)Oc2ccc(cc2Cl)[C@H]1O` [Vancomycin]?
Answer: MIC ([1]; strain 282): 1 µg/mL (≈ 0.69 µM); MIC ([1]; strain 8043): 1 µg/mL (≈ 0.69 µM); MIC ([1]; strain 9901): 2 µg/mL (≈ 1.38 µM); MIC ([1]; strain 9913): 1 µg/mL (≈ 0.69 µM); MIC ([1]; strain 9933 Beta): 4 µg/mL (≈ 2.76 µM); MIC ([1]; strain 9960): 4 µg/mL (≈ 2.76 µM); MIC ([1]; strain 12253F): 1 µg/mL (≈ 0.69 µM); MIC ([1]; strain 22521): 4 µg/mL (≈ 2.76 µM); MIC ([1]; strain M10): 4 µg/mL (≈ 2.76 µM); MIC ([1]; strain M11): 1 µg/mL (≈ 0.69 µM); MIC ([1]; strain M12): 4 µg/mL (≈ 2.76 µM); MIC ([1]; strain M13): 2 µg/mL (≈ 1.38 µM); MIC ([1]; strain M20): 1 µg/mL (≈ 0.69 µM); MIC ([1]; strain M21): 4 µg/mL (≈ 2.76 µM); MIC ([1]; strain M28): 4 µg/mL (≈ 2.76 µM); MIC ([1]; strain M36): 4 µg/mL (≈ 2.76 µM); MIC ([1]; strain M38): 1 µg/mL (≈ 0.69 µM); MIC ([1]; strain Shrigley): 2 µg/mL (≈ 1.38 µM); MIC ([1]; strain Van Almen): 4 µg/mL (≈ 2.76 µM); MIC ([1]; strain Vietnam): 2 µg/mL (≈ 1.38 µM); MIC [2]: 16 µg/mL (≈ 11 µM); MIC (Clostridium septicum): 2 µg/mL (≈ 1.38 µM); MIC (Peptococcus prevoti [3]): 4 µg/mL (≈ 2.76 µM); MIC (Eubacterium aerofaciens): 8 µg/mL (≈ 5.52 µM); MIC [4]: 4 µg/mL (≈ 2.76 µM); MIC [5]: 1 µg/mL (≈ 0.69 µM); MIC (Bacteroides fragilis; Bacteroides fragilis, 24 h): 16 µg/mL (≈ 11 µM); MIC (Bacteroides fragilis; strain 1877, 24 hr, A84575: 3 different lots): 16 µg/mL (≈ 11 µM); MIC (Bacteroides fragilis; strain 1936B, 24 hr, A84575: 3 different lots): 16 µg/mL (≈ 11 µM); MIC ([6]; strain 1856/28, A84575: 3 different lots): > 64 µg/mL; MIC ([6]; strain 2736, A84575: 3 different lots): 16 µg/mL (≈ 11 µM); MIC (Bacteroides vulgatis): 8 µg/mL (≈ 5.52 µM); MIC (Bacteroides corrodens): 16 µg/mL (≈ 11 µM); MIC [7]: 1 µg/mL (≈ 0.69 µM); MIC (Propionibacterium acnes; strain #44, A84575: 3 different lots): 0.5 µg/mL (≈ 0.345 µM); MIC (Propionibacterium acnes; strain #103, A84575: 3 different lots): 0.25 µg/mL (≈ 0.173 µM); MIC (Propionibacterium acnes; strain #104, A84575: 3 different lots): 0.5 µg/mL (≈ 0.345 µM); MIC (Propionibacterium acnes; strain #105, A84575: 3 different lots): 0.25 µg/mL (≈ 0.173 µM); MIC (Propionibacterium acnes; strain #106, A84575: 3 different lots): 0.5 µg/mL (≈ 0.345 µM); MIC (Propionibacterium acnes; strain #107, A84575: 3 different lots): 0.25 µg/mL (≈ 0.173 µM); MIC (Propionibacterium acnes; strain #5170, A84575: 3 different lots): 0.25 µg/mL (≈ 0.173 µM); MIC (Propionibacterium acnes; strain #5176, A84575: 3 different lots): 2 µg/mL (≈ 1.38 µM); MIC (Propionibacterium acnes; strain #5187, A84575: 3 different lots): 0.5 µg/mL (≈ 0.345 µM); MIC (Propionibacterium acnes; strain #5191, A84575: 3 different lots): 0.5 µg/mL (≈ 0.345 µM); MIC (Propionibacterium acnes; strain #5197, A84575: 3 different lots): 0.5 µg/mL (≈ 0.345 µM); MIC (Propionibacterium acnes; strain #5226, A84575: 3 different lots): 0.5 µg/mL (≈ 0.345 µM); MIC (Propionibacterium acnes; strain #5227, A84575: 3 different lots): 0.25 µg/mL (≈ 0.173 µM); MIC (Propionibacterium acnes; strain #5228, A84575: 3 different lots): 0.25 µg/mL (≈ 0.173 µM); MIC (Propionibacterium acnes; strain #5229, A84575: 3 different lots): 0.25 µg/mL (≈ 0.173 µM); MIC (Propionibacterium acnes; strain #5246, A84575: 3 different lots): 0.25 µg/mL (≈ 0.173 µM); MIC (Propionibacterium acnes; strain #5260, A84575: 3 different lots): 0.5 µg/mL (≈ 0.345 µM); MIC (Propionibacterium acnes; strain #5292, A84575: 3 different lots): 0.5 µg/mL (≈ 0.345 µM); MIC (Propionibacterium acnes; strain #8586A, A84575: 3 different lots): 0.5 µg/mL (≈ 0.345 µM); MIC (Peptococcus constellatus): 1 µg/mL (≈ 0.69 µM); MIC (Peptococcus magnus; strain 1401, A84575: 3 different lots): 0.125 µg/mL (≈ 0.0863 µM); MIC (Peptococcus magnus; strain 1421, A84575: 3 different lots): 0.5 µg/mL (≈ 0.345 µM); MIC (Peptococcus magnus; strain 29328, A84575: 3 different lots): 1 µg/mL (≈ 0.69 µM); MIC (Peptococcus prevoti [8]; strain 1281, read-out: MIC): 2 µg/mL (≈ 1.38 µM); MIC (Peptococcus prevoti [8]; strain 1293): 2 µg/mL (≈ 1.38 µM); MIC (Peptococcus prevoti [8]; strain 1407): 2 µg/mL (≈ 1.38 µM); MIC ([9]; strain 8, A84575: 3 different lots): 1 µg/mL (≈ 0.69 µM); MIC ([9]; strain 52, A84575: 3 different lots): 1 µg/mL (≈ 0.69 µM); MIC ([9]; strain 59, A84575: 3 different lots): 0.25 µg/mL (≈ 0.173 µM); MIC ([9]; strain 1428, A84575: 3 different lots): 0.03 µg/mL (≈ 0.0207 µM); MIC ([9]; strain 1451, A84575: 3 different lots): 2 µg/mL (≈ 1.38 µM); MIC ([9]; strain 1477, A84575: 3 different lots): 2 µg/mL (≈ 1.38 µM); MIC ([10]; strain 1524, A84575: 3 different lots): 1 µg/mL (≈ 0.69 µM); MIC ([10]; strain 1624, A84575: 3 different lots): 0.25 µg/mL (≈ 0.173 µM); ED50 (Streptococcus aureus): 0.83 mg/kg; ED50 (Streptococcus pneumoniae): 1.58 mg/kg; Plasma level ([11]; 0.08 hours, *1 only 1 zone out of 5 (A84575 Complex)): 5.84 ± 2.68; Plasma level ([11]; 0.33 hours): 14.25 ± 7.8; Plasma level ([11]; 0.66 hours): 7.47 ± 2.5; Plasma level ([11]; 1 hour): 5.41 ± 2.4; Plasma level ([11]; 2 hours, *2 one very high concentration in one animal (A84575 Complex)): 0.87 ± 0.2; MIC (Streptococcus pyogenes; ATCC12344, strain ATCC 12344): 1 µg/mL (≈ 0.69 µM); MIC (Streptococcus pyogenes; strain 9931): 0.5 µg/mL (≈ 0.345 µM); MIC (Streptococcus pyogenes; strain 10389): 0.5 µg/mL (≈ 0.345 µM); MIC (Streptococcus pyogenes; strain 12385): 2 µg/mL (≈ 1.38 µM); MIC (Streptococcus pyogenes; strain 12961): 1 µg/mL (≈ 0.69 µM); MIC (Streptococcus pyogenes; strain C203): 1 µg/mL (≈ 0.69 µM); MIC (Streptococcus pyogenes; strain DS663-72): 0.5 µg/mL (≈ 0.345 µM); MIC (Streptococcus pyogenes; strain HB93): 1 µg/mL (≈ 0.69 µM); MIC (Streptococcus pyogenes; strain K-1): 0.5 µg/mL (≈ 0.345 µM); MIC (Streptococcus pyogenes; strain K-2): 0.5 µg/mL (≈ 0.345 µM); MIC (Streptococcus pyogenes; strain K-3): 0.5 µg/mL (≈ 0.345 µM); MIC (Streptococcus pyogenes; strain K-4): 1 µg/mL (≈ 0.69 µM); MIC (Streptococcus pyogenes; strain K-5): 1 µg/mL (≈ 0.69 µM); MIC (Streptococcus pyogenes; strain K-6): 0.5 µg/mL (≈ 0.345 µM); MIC (S. salivarius): 1 µg/mL (≈ 0.69 µM); MIC (S. sanguis; strain I-SSI-547): 0.5 µg/mL (≈ 0.345 µM); MIC (S. sanguis; strain I-SSI-910): 0.5 µg/mL (≈ 0.345 µM); MIC (S. sanguis; strain II-SSII-895): 0.5 µg/mL (≈ 0.345 µM); MIC (S. sanguis; strain II-SSII-911): 1 µg/mL (≈ 0.69 µM); MIC (S. mutans; strain SM-1122): 1 µg/mL (≈ 0.69 µM); MIC (S. mutans; strain SM-1134): 2 µg/mL (≈ 1.38 µM)
